tested on: NL-RLuc virus; assay: Inhibition of HIV replication (NL-RLuc luciferase reporter virus in MT-2 cells); type: cell-based; settings: Human immunodeficiency virus 1, MT2, 120 h, read-out: Activity
Procedure, shortened: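 The read-out is Renilla luciferase expressed by replication-competent NL-RLuc (nef partly replaced), measured 5 days after infection of MT-2 cells grown with compound dilutions in 10% FBS RPMI. Median effect equation gives EC50 from ≥2 runs; A ≤100 nM, B 100 nM–1 uM, C >1 uM.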

| Compound | EC50 |
| --- | --- |
| CCOCCOCCOCc1nc(C)c(-c2ccc(OCCc3ccc(F)cc3)cc2)c(N2CCC(C)(C)CC2)c1[C@H](OC(C)(C)C)C(=O)O [Example 110, (S)-2-(tert-Butoxy)-2-(4-(4,4-dimethylpiperidin-1-yl)-2-((2-(2-ethoxyethoxy)ethoxy)methyl)-5-(4-(4-fluorophenethoxy)phenyl)-6-methylpyridin-3-yl)acetic acid] | < 0.1 µM |
| Cc1nc(COCCCOCc2ccccc2)c([C@H](OC(C)(C)C)C(=O)O)c(N2CCC(C)(C)CC2)c1-c1ccc(OCCc2ccc(F)cc2)cc1 [Example 111, (S)-2-(2-((3-(Benzyloxy)propoxy)methyl)-4-(4,4-dimethylpiperidin-1-yl)-5-(4-(4-fluorophenethoxy)phenyl)-6-methylpyridin-3-yl)-2-(tert-butoxy)acetic acid] | < 0.1 µM |
| Cc1nc(CN(C)C)c([C@H](OC(C)(C)C)C(=O)O)c(N2CCC(C)(C)CC2)c1-c1ccc(OCCc2ccc(F)cc2)cc1 [Example 112, (S)-2-(tert-Butoxy)-2-(2-((dimethylamino)methyl)-4-(4,4-dimethylpiperidin-1-yl)-5-(4-(4-fluorophenethoxy)phenyl)-6-methylpyridin-3-yl)acetic acid] | < 0.1 µM |
| Cc1cc(F)ccc1CN1CCc2cc(-c3c(CO)nc(C)c([C@H](OC(C)(C)C)C(=O)O)c3N3CCC(C)(C)CC3)ccc2C1 [Example 113, (S)-2-(tert-Butoxy)-2-(4-(4,4-dimethylpiperidin-1-yl)-5-(2-(4-fluoro-2-methylbenzyl)-1,2,3,4-tetrahydroisoquinolin-6-yl)-6-(hydroxymethyl)-2-methylpyridin-3-yl)acetic acid] | < 0.1 µM |
| CNCc1nc(C)c([C@H](OC(C)(C)C)C(=O)O)c(N2CCC(C)(C)CC2)c1-c1ccc2c(c1)CCN(Cc1ccc(F)cc1C)C2 [Example 114, (S)-2-(tert-Butoxy)-2-(4-(4,4-dimethylpiperidin-1-yl)-5-(2-(4-fluoro-2-methylbenzyl)-1,2,3,4-tetrahydroisoquinolin-6-yl)-2-methyl-6-((methylamino)methyl)pyridin-3-yl)acetic acid] | < 0.1 µM |
| Cc1cc(F)ccc1CN1CCc2cc(-c3c(CN(C)C)nc(C)c([C@H](OC(C)(C)C)C(=O)O)c3N3CCC(C)(C)CC3)ccc2C1 [Example 115, (S)-2-(tert-Butoxy)-2-(6-((dimethylamino)methyl)-4-(4,4-dimethylpiperidin-1-yl)-5-(2-(4-fluoro-2-methylbenzyl)-1,2,3,4-tetrahydroisoquinolin-6-yl)-2-methylpyridin-3-yl)acetic acid] | < 0.1 µM |
| COCCNCc1nc(C)c([C@H](OC(C)(C)C)C(=O)O)c(N2CCC(C)(C)CC2)c1-c1ccc2c(c1)CCN(Cc1ccc(F)cc1C)C2 [Example 116, (S)-2-(tert-Butoxy)-2-(4-(4,4-dimethylpiperidin-1-yl)-5-(2-(4-fluoro-2-methylbenzyl)-1,2,3,4-tetrahydroisoquinolin-6-yl)-6-(((2-methoxyethyl)amino)methyl)-2-methylpyridin-3-yl)acetic acid] | < 0.1 µM |
| Cc1cc(F)ccc1CN1CCc2cc(-c3c(CN4CCC4)nc(C)c([C@H](OC(C)(C)C)C(=O)O)c3N3CCC(C)(C)CC3)ccc2C1 [Example 117, (S)-2-(6-(Azetidin-1-ylmethyl)-4-(4,4-dimethylpiperidin-1-yl)-5-(2-(4-fluoro-2-methylbenzyl)-1,2,3,4-tetrahydroisoquinolin-6-yl)-2-methylpyridin-3-yl)-2-(tert-butoxy)acetic acid] | < 0.1 µM |
| Cc1cc(F)ccc1CN1CCc2cc(-c3c(CN4CCCC4)nc(C)c([C@H](OC(C)(C)C)C(=O)O)c3N3CCC(C)(C)CC3)ccc2C1 [Example 118, (S)-2-(tert-Butoxy)-2-(4-(4,4-dimethylpiperidin-1-yl)-5-(2-(4-fluoro-2-methylbenzyl)-1,2,3,4-tetrahydroisoquinolin-6-yl)-2-methyl-6-(pyrrolidin-1-ylmethyl)pyridin-3-yl)acetic acid] | < 0.1 µM |
| Cc1cc(F)ccc1CN1CCc2cc(-c3c(CN4CCCCC4)nc(C)c([C@H](OC(C)(C)C)C(=O)O)c3N3CCC(C)(C)CC3)ccc2C1 [Example 119, (S)-2-(tert-Butoxy)-2-(4-(4,4-dimethylpiperidin-1-yl)-5-(2-(4-fluoro-2-methylbenzyl)-1,2,3,4-tetrahydroisoquinolin-6-yl)-2-methyl-6-(piperidin-1-ylmethyl)pyridin-3-yl)acetic acid] | < 0.1 µM |
| Cc1cc(F)ccc1CN1CCc2cc(-c3c(CN4CCC(C)(C)CC4)nc(C)c([C@H](OC(C)(C)C)C(=O)O)c3N3CCC(C)(C)CC3)ccc2C1 [Example 120, (S)-2-(tert-Butoxy)-2-(4-(4,4-dimethylpiperidin-1-yl)-6-((4,4-dimethylpiperidin-1-yl)methyl)-5-(2-(4-fluoro-2-methylbenzyl)-1,2,3,4-tetrahydroisoquinolin-6-yl)-2-methylpyridin-3-yl)acetic acid] | < 0.1 µM |
| Cc1cc(F)ccc1CN1CCc2cc(-c3c(CN4CCOCC4)nc(C)c([C@H](OC(C)(C)C)C(=O)O)c3N3CCC(C)(C)CC3)ccc2C1 [Example 121, (S)-2-(tert-Butoxy)-2-(4-(4,4-dimethylpiperidin-1-yl)-5-(2-(4-fluoro-2-methylbenzyl)-1,2,3,4-tetrahydroisoquinolin-6-yl)-2-methyl-6-(morpholinomethyl)pyridin-3-yl)acetic acid] | < 0.1 µM |
| Cc1cc(F)ccc1CN1CCc2cc(-c3c(CN4CCSCC4)nc(C)c([C@H](OC(C)(C)C)C(=O)O)c3N3CCC(C)(C)CC3)ccc2C1 [Example 122, (S)-2-(tert-Butoxy)-2-(4-(4,4-dimethylpiperidin-1-yl)-5-(2-(4-fluoro-2-methylbenzyl)-1,2,3,4-tetrahydroisoquinolin-6-yl)-2-methyl-6-(thiomorpholinomethyl)pyridin-3-yl)acetic acid] | < 0.1 µM |
| Cc1cc(F)ccc1CN1CCc2cc(-c3c(CN4CCS(=O)(=O)CC4)nc(C)c([C@H](OC(C)(C)C)C(=O)O)c3N3CCC(C)(C)CC3)ccc2C1 [Example 123, (S)-2-(tert-Butoxy)-2-(4-(4,4-dimethylpiperidin-1-yl)-6-((1,1-dioxidothiomorpholino)methyl)-5-(2-(4-fluoro-2-methylbenzyl)-1,2,3,4-tetrahydroisoquinolin-6-yl)-2-methylpyridin-3-yl)acetic acid] | < 0.1 µM |
| Cc1cc(F)ccc1CN1CCc2cc(-c3c(CNCc4ccncc4)nc(C)c([C@H](OC(C)(C)C)C(=O)O)c3N3CCC(C)(C)CC3)ccc2C1 [Example 124, (S)-2-(tert-Butoxy)-2-(4-(4,4-dimethylpiperidin-1-yl)-5-(2-(4-fluoro-2-methylbenzyl)-1,2,3,4-tetrahydroisoquinolin-6-yl)-2-methyl-6-(((pyridin-4-ylmethyl)amino)methyl)pyridin-3-yl)acetic acid] | < 0.1 µM |
| CC[N+](CC)(CC)Cc1nc(C)c([C@H](OC(C)(C)C)C(=O)O)c(N2CCC(C)(C)CC2)c1-c1ccc2c(c1)CCN(Cc1ccc(F)cc1C)C2 [Example 125, (S)—N-((5-(tert-Butoxy(carboxy)methyl)-4-(4,4-dimethylpiperidin-1-yl)-3-(2-(4-fluoro-2-methylbenzyl)-1,2,3,4-tetrahydroisoquinolin-6-yl)-6-methylpyridin-2-yl)methyl)-N,N-diethylethanaminium] | < 0.1 µM |
| Cc1cc(F)ccc1CN1CCc2cc(-c3c(CNCc4cccnc4)nc(C)c([C@H](OC(C)(C)C)C(=O)O)c3N3CCC(C)(C)CC3)ccc2C1 [Example 126, (S)-2-(tert-Butoxy)-2-(4-(4,4-dimethylpiperidin-1-yl)-5-(2-(4-fluoro-2-methylbenzyl)-1,2,3,4-tetrahydroisoquinolin-6-yl)-2-methyl-6-(((pyridin-3-ylmethyl)amino)methyl)pyridin-3-yl)acetic acid] | < 0.1 µM |
| Cc1cc(F)ccc1CN1CCc2cc(-c3c(CNCC4CCOCC4)nc(C)c([C@H](OC(C)(C)C)C(=O)O)c3N3CCC(C)(C)CC3)ccc2C1 [Example 127, (S)-2-(tert-Butoxy)-2-(4-(4,4-dimethylpiperidin-1-yl)-5-(2-(4-fluoro-2-methylbenzyl)-1,2,3,4-tetrahydroisoquinolin-6-yl)-2-methyl-6-((((tetrahydro-2H-pyran-4-yl)methyl)amino)methyl)pyridin-3-yl)acetic acid] | < 0.1 µM |
| Cc1cc(F)ccc1CN1CCc2cc(-c3c(CN4CCC(F)(F)CC4)nc(C)c([C@H](OC(C)(C)C)C(=O)O)c3N3CCC(C)(C)CC3)ccc2C1 [Example 128, (S)-2-(tert-Butoxy)-2-(6-((4,4-difluoropiperidin-1-yl)methyl)-4-(4,4-dimethylpiperidin-1-yl)-5-(2-(4-fluoro-2-methylbenzyl)-1,2,3,4-tetrahydroisoquinolin-6-yl)-2-methylpyridin-3-yl)acetic acid] | < 0.1 µM |
| Cc1cc(F)ccc1CN1CCc2cc(-c3c(CN4CCCC(F)(F)C4)nc(C)c([C@H](OC(C)(C)C)C(=O)O)c3N3CCC(C)(C)CC3)ccc2C1 [Example 129, (S)-2-(tert-Butoxy)-2-(6-((3,3-difluoropiperidin-1-yl)methyl)-4-(4,4-dimethylpiperidin-1-yl)-5-(2-(4-fluoro-2-methylbenzyl)-1,2,3,4-tetrahydroisoquinolin-6-yl)-2-methylpyridin-3-yl)acetic acid] | < 0.1 µM |
| Cc1cc(F)ccc1CN1CCc2cc(-c3c(CN4CCC(F)CC4)nc(C)c([C@H](OC(C)(C)C)C(=O)O)c3N3CCC(C)(C)CC3)ccc2C1 [Example 130, (S)-2-(tert-Butoxy)-2-(4-(4,4-dimethylpiperidin-1-yl)-5-(2-(4-fluoro-2-methylbenzyl)-1,2,3,4-tetrahydroisoquinolin-6-yl)-6-((4-fluoropiperidin-1-yl)methyl)-2-methylpyridin-3-yl)acetic acid] | < 0.1 µM |

same assay, conditions: Human immunodeficiency virus 1, MT2, 120 h, read-out: EC50 μM

| Compound | EC50 |
| --- | --- |
| Cc1cc(F)ccc1CN1CCc2cc(-c3c(CN4CCCC4)nc(C)c([C@H](OC(C)(C)C)C(=O)O)c3N3CCC(C)(C)CC3)ccc2C1 [Example 118, (S)-2-(tert-Butoxy)-2-(4-(4,4-dimethylpiperidin-1-yl)-5-(2-(4-fluoro-2-methylbenzyl)-1,2,3,4-tetrahydroisoquinolin-6-yl)-2-methyl-6-(pyrrolidin-1-ylmethyl)pyridin-3-yl)acetic acid] | 0.002 µM |
| CC[N+](CC)(CC)Cc1nc(C)c([C@H](OC(C)(C)C)C(=O)O)c(N2CCC(C)(C)CC2)c1-c1ccc2c(c1)CCN(Cc1ccc(F)cc1C)C2 [Example 125, (S)—N-((5-(tert-Butoxy(carboxy)methyl)-4-(4,4-dimethylpiperidin-1-yl)-3-(2-(4-fluoro-2-methylbenzyl)-1,2,3,4-tetrahydroisoquinolin-6-yl)-6-methylpyridin-2-yl)methyl)-N,N-diethylethanaminium] | 0.016 µM |

From patent publication US10351546B2, “Pyridin-3-yl acetic acid derivatives as inhibitors of human immunodeficiency virus replication” (priority 2015, dated 2019)
